Reference: ChEMBL document CHEMBL3751674, “Synthesis, antimicrobial activity of Schiff base compounds of cinnamaldehyde and amino acids” (2016)

Tests used:
Assay type in all cases: functional
Conditions in all cases: read-out: DIZ
Aspergillus niger [1] = experiment: Antifungal activity against Aspergillus niger at 0.25 mol/L after 2 to 4 days by paper disc method
Aspergillus niger [2] = experiment: Antifungal activity against Aspergillus niger at 0.13 mol/L after 2 to 4 days by paper disc method
Aspergillus niger [3] = experiment: Antifungal activity against Aspergillus niger at 0.06 mol/L after 2 to 4 days by paper disc method
Aspergillus niger [4] = experiment: Antifungal activity against Aspergillus niger at 0.03 mol/L after 2 to 4 days by paper disc method
Penicillium citrinum [5] = experiment: Antifungal activity against Penicillium citrinum at 0.25 mol/L after 2 to 4 days by paper disc method
Penicillium citrinum [6] = experiment: Antifungal activity against Penicillium citrinum at 0.13 mol/L after 2 to 4 days by paper disc method
Penicillium citrinum [7] = experiment: Antifungal activity against Penicillium citrinum at 0.06 mol/L after 2 to 4 days by paper disc method
Penicillium citrinum [8] = experiment: Antifungal activity against Penicillium citrinum at 0.03 mol/L after 2 to 4 days by paper disc method
Escherichia coli [9] = experiment: Antibacterial activity against Escherichia coli at 0.25 mol/L after 12 to 24 hrs by paper disc method
Escherichia coli [10] = experiment: Antibacterial activity against Escherichia coli at 0.13 mol/L after 12 to 24 hrs by paper disc method
Escherichia coli [11] = experiment: Antibacterial activity against Escherichia coli at 0.06 mol/L after 12 to 24 hrs by paper disc method
Escherichia coli [12] = experiment: Antibacterial activity against Escherichia coli at 0.03 mol/L after 12 to 24 hrs by paper disc method
Staphylococcus aureus [13] = experiment: Antibacterial activity against Staphylococcus aureus at 0.25 mol/L after 12 to 24 hrs by paper disc method
Staphylococcus aureus [14] = experiment: Antibacterial activity against Staphylococcus aureus at 0.13 mol/L after 12 to 24 hrs by paper disc method
Staphylococcus aureus [15] = experiment: Antibacterial activity against Staphylococcus aureus at 0.06 mol/L after 12 to 24 hrs by paper disc method
Staphylococcus aureus [16] = experiment: Antibacterial activity against Staphylococcus aureus at 0.03 mol/L after 12 to 24 hrs by paper disc method

Compound	zone of inhibition at 250000 µM (Aspergillus niger [1]) [mm]	zone of inhibition at 130000 µM (Aspergillus niger [2]) [mm]	zone of inhibition at 60000 µM (Aspergillus niger [3]) [mm]	zone of inhibition at 30000 µM (Aspergillus niger [4]) [mm]	zone of inhibition at 250000 µM (Penicillium citrinum [5]) [mm]	zone of inhibition at 130000 µM (Penicillium citrinum [6]) [mm]	zone of inhibition at 60000 µM (Penicillium citrinum [7]) [mm]	zone of inhibition at 30000 µM (Penicillium citrinum [8]) [mm]	zone of inhibition at 250000 µM (Escherichia coli [9]) [mm]	zone of inhibition at 130000 µM (Escherichia coli [10]) [mm]	zone of inhibition at 60000 µM (Escherichia coli [11]) [mm]	zone of inhibition at 30000 µM (Escherichia coli [12]) [mm]	zone of inhibition at 250000 µM (Staphylococcus aureus [13]) [mm]	zone of inhibition at 130000 µM (Staphylococcus aureus [14]) [mm]	zone of inhibition at 60000 µM (Staphylococcus aureus [15]) [mm]	zone of inhibition at 30000 µM (Staphylococcus aureus [16]) [mm]
CC(/N=C/C=C/c1ccccc1)C(=O)O (configuration not stated)	9.7	8.3	8	8	8	10.3	9.3	12.3	11	8	8	8	8	8	8	8
COc1ccc(/C=C/C=N/CC(=O)O)cc1	23.3	17.7	8	11.3	21	11.7	8.7	11.5	13.5	8	8	8	8.7	8	9	8
O=C(O)C[C@H](/N=C/C=C/c1ccc(Cl)cc1)C(=O)O	29	15.7	19.3	14.3	32.3	23.3	25	24.5	25.2	12	13	8	30.3	18.3	8.5	9.2
O=C(O)C/N=C/C=C/c1ccccc1	11	8.7	9	8	10.3	10.7	11	8	9.3	8	8	8	11.7	8	8	8
COc1ccc(/C=C/C=N/C(C)C(=O)O)cc1 (configuration not stated)	15.8	10.5	12.7	8	17.7	9.8	13.3	9	16.3	8	10	8	12.7	8.7	8	8
O=C(O)CC[C@H](/N=C/C=C/c1ccc(Cl)cc1)C(=O)O	21	23.3	17.3	17.7	35	23	18.7	17	18.3	17.3	12	15.7	31	20	10.5	8.3
COc1ccc(/C=C/C=N/[C@@H](CC(=O)O)C(=O)O)cc1	16.3	22.5	11.2	8	34.3	23.7	12.8	8	9.5	10	10	10.3	8	10.2	8.3	8
O=C(O)C[C@H](/N=C/C=C/c1ccccc1)C(=O)O	29.7	24	19.3	12.7	40.7	28	14.8	10.3	25	17.3	12	8	18	8	8	8
O=C(O)CC[C@H](/N=C/C=C/c1ccccc1)C(=O)O	25	22.7	13.8	8	38	25.3	14	9.7	26	15	8	8	19.7	8.2	8	8
O=C(O)C/N=C/C=C/c1ccc(Cl)cc1	23.7	23	21.7	12	25	21.7	20.3	16.3	22.8	18.2	21.7	19.3	22.2	9.7	8	12.3
COc1ccc(/C=C/C=N/[C@@H](CCC(=O)O)C(=O)O)cc1	23.2	20.3	13.2	8.8	20.7	25.3	13.3	11.5	18.7	11.7	11.3	8	8.3	8	8.3	8
O=C/C=C/c1ccccc1 [CINNAMALDEHYDE]	26.7	22.3	16	8	29.7	28.7	15	12.2	29.5	11	11	8	10.5	9	8	8
